Measurements from ChEMBL document CHEMBL5604063, “ASAP - DENV-2 NS2B-NS3 protease fluorescence dose response” (2024).
Where “and” joins values, the source holds several entries; their conditions need not be identical. Identical values can stand only once.

Key:
Genome polyprotein [1] = molecular target: T1, Genome polyprotein (dengue virus type 2, UniProt P29990); type: functional, Thailand/16681/1984
Genome polyprotein [2] = molecular target: T1, Genome polyprotein; type: functional, Thailand/16681/1984; remark: listed apart in the source

T1 sequence (P29990 1346-1475 limits assumed): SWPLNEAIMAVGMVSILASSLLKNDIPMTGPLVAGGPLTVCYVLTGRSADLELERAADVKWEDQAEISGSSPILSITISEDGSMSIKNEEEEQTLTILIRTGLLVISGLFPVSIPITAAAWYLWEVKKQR
T1 sequence (P29990 1476-2093 limits assumed): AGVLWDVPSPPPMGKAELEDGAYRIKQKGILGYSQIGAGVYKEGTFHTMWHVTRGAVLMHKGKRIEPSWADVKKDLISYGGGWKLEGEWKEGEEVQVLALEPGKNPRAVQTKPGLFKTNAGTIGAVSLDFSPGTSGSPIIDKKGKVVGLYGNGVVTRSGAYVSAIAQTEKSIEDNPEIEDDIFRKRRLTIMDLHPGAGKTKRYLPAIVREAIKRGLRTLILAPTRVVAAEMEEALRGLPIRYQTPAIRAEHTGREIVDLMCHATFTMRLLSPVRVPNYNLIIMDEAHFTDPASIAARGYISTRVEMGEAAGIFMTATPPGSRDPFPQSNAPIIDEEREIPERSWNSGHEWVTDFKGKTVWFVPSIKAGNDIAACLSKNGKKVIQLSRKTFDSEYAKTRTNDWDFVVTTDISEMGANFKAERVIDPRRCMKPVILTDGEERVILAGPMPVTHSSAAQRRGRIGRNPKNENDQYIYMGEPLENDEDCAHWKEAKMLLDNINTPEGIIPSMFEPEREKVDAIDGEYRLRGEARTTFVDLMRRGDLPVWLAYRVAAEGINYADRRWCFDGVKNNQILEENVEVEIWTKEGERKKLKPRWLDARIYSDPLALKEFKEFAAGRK

| Compound | IC50 (Genome polyprotein [1]) [µM] | IC50 (Genome polyprotein [2]) |
| --- | --- | --- |
| Cc1c(C(=O)Nc2cccc(CS(C)(=O)=O)c2)cc(C2CC2)n1C | > 99.5 | > 100 µM |
| O=C(NCC(F)F)[C@H](Nc1ncc2c(n1)CNC2)c1cc(Cl)cc(C2CC2)c1 | > 99.5 | > 100 µM |
| O=C1Cc2c(cccc2C(=O)Nc2ccc3c(c2)[C@H](O)CCO3)N1 | > 99.5 | > 100 µM |
| O=C1Cc2c(cccc2C(=O)Nc2ccnn2Cc2ccncc2)N1 | > 99.5 | > 100 µM |
| NC(=O)COc1ccc(Br)cc1[C@H](Nc1ccc2c(c1)CNC2)C(=O)NCC(F)F | > 99.5 | > 100 µM |
| Cn1nc(CNc2cc(-c3cccnc3)ccn2)cc1C1CC1 | > 99.5 | > 100 µM |
| CC(=O)N(c1ccc2c(c1)CNC2)[C@]1(c2cc(Cl)cc(C3CC3)c2)CN(C)C1=O | > 99.5 | > 100 µM |
| CO[C@H]1Cc2ccc(NC(=O)c3cc(C4CC4)n(C)c3C)cc2C1 | > 99.5 | > 100 µM |
| O=C(NCC(F)F)[C@H](Nc1ccc2c(c1)CNC2)c1cc(Br)cc2nc[nH]c12 | > 99.5 | > 100 µM |
| O=C1Cc2c(cccc2C(=O)Nc2nnc3n2CCCS3)N1 | > 99.5 | > 100 µM |
| O=C(O)COc1ccc(Cl)cc1[C@H](Nc1ccc2c(c1)CNC2)C(=O)NCC(F)F | > 99.5 | > 100 µM |
| NC(=O)c1cn(C2CCCC2)nc1NC(=O)c1cccc2c1CC(=O)N2 | > 99.5 | > 100 µM |
| O=C1Cc2c(cccc2C(=O)Nc2cnn(Cc3ccncc3)c2)N1 | > 99.5 | > 100 µM |
| O=C1Cc2c(cccc2C(=O)Nc2ccc3[nH]nnc3c2)N1 | > 99.5 | > 100 µM |
| C=C(C)c1ccc(Cl)cc1[C@H](Nc1ccc2c(c1)CNC2)C(=O)NCC(F)F | > 99.5 | > 100 µM |
| Cc1c(C(=O)Nc2ccc3c(c2)C[C@H](C(N)=O)O3)cc(C2CC2)n1C | > 99.5 | > 100 µM |
| N#CCOc1ccc(Br)cc1[C@H](Nc1ccc2c(c1)CNC2)C(=O)NCC(F)F | > 99.5 | > 100 µM |
| Cc1c(C(=O)Nc2ccc3c(c2)CCC(=O)N3CC2CCC2)cc(C2CC2)n1C | > 99.5 | > 100 µM |
| Clc1cc(CNc2ncc3c(n2)CNC3)c2cn[nH]c2c1 | > 99.5 | > 100 µM |
| Clc1cc(CNc2ccc3c(n2)CNC3)c2cn[nH]c2c1 | > 99.5 | > 100 µM |
| Cc1c(C(=O)Nc2cccc(-c3nc(C4CC4)no3)c2)cc(C2CC2)n1C | > 99.5 | > 100 µM |
| CC(=O)N1CC[C@]2(C1)C(=O)Nc1cccc(C(=O)Nc3ccc4c(c3)CNC4)c12 | > 99.5 | > 100 µM |
| N#Cc1cccc(-c2nc3c(C(=O)Nc4cccc(F)c4)cc(Cl)cc3[nH]2)c1 | > 99.5 | > 100 µM |
| CC(C)NC(=O)C[C@H]1NCc2cc(NC(=O)c3cc(Cl)cc4[nH]ncc34)ccc21 | > 99.5 | > 100 µM |
| O=C(NCC(F)F)[C@H](Nc1cc2c(cc1Br)CNC2)c1cc(Cl)cc(C2CC2)c1 | > 99.5 | 91.9 µM and 70.7 µM |

| Compound | IC50 (Genome polyprotein [1]) [µM] | IC50 (Genome polyprotein [2]) |
| --- | --- | --- |
| O=C(NCC(F)F)[C@H](Nc1ccc2c(c1)CNC2)c1cc(Cl)cc2cccnc12 | 93 | 128 µM and 125 µM |
| CNC(=O)c1cc(Br)cc([C@H](Nc2ccc3c(c2)CNC3)C(=O)NCC(F)F)c1 | > 99.5 | > 100 µM |
| O=C(Nc1ccc2c(c1)CN[C@H]2CC1CC1)c1cc(F)cc2[nH]ncc12 | 37.9 | 31.3 µM and 22.1 µM |
| CC1(C)NCc2cc(NC(=O)c3cc(F)cc4[nH]ncc34)ccc21 | > 99.5 | > 100 µM |
| CC(C)(C)OC(=O)N1Cc2ccc(N[C@H](C(=O)O)c3cc(Cl)cc4[nH]ncc34)cc2C1 | 78.2 | 57.6 µM and 41.9 µM |
| Cc1c(C(=O)Nc2cccc(-c3ccoc3)c2)cc(C2CC2)n1C | > 99.5 | > 100 µM |
| CN(C)C(=O)C[C@H]1NCc2cc(NC(=O)c3cc(Cl)cc4[nH]ncc34)ccc21 | > 99.5 | > 100 µM |
| CS(=O)(=O)NC(=O)C[C@H]1NCc2cc(NC(=O)c3cc(Cl)cc4[nH]ncc34)ccc21 | > 296 | > 300 µM |
| CC(C)(C)NC(=O)C[C@H]1NCc2cc(NC(=O)c3cc(Cl)cc4[nH]ncc34)ccc21 | > 99.5 | > 100 µM |
| C[C@H]1NCc2ccc(NC(=O)c3cc(Cl)cc4[nH]ncc34)cc21 | > 99.5 | > 100 µM |
| N#CCc1cc(NC(=O)c2cc(F)cc3[nH]ncc23)cc2c1CNC2 | 23.5 | 38.3 µM and 18.9 µM |
| CNC(=O)C[C@H]1NCc2cc(NC(=O)c3cc(Cl)cc4[nH]ncc34)ccc21 | > 99.5 | > 100 µM |
| CC(=O)N[C@]1(C)C(=O)Nc2cc(F)cc(C(=O)Nc3ccc4c(c3)CNC4)c21 | > 99.5 | > 100 µM |
| O=C1Cc2c(cccc2C(=O)Nc2cc(Br)c3ncnn3c2)N1 | > 99.5 | > 100 µM |
| O=C(Nc1ccc2c(c1)CNC2)c1cc(Cl)cc2[nH]c(-c3cccc(F)c3)nc12 | 2.64 | 17.4 µM and 12.8 µM |
| C[C@]1(S(C)(=O)=O)C(=O)Nc2cc(F)cc(C(=O)Nc3ccc4c(c3)CNC4)c21 | > 99.5 | > 100 µM |
| NCCCn1c(C2CC2)cc(C(=O)Nc2cc([C@H]3CCOC3)ccn2)c1C1CC1 | > 99.5 | > 100 µM |
| Cc1c(C(=O)Nc2ccc3c(c2F)CCN(C)C3=O)cc(C2CC2)n1C | > 99.5 | > 100 µM |
| Cc1c(C(=O)Nc2cccc(Cn3cccn3)c2)cc(C2CC2)n1C | > 99.5 | > 100 µM |
| O=C1Cc2c(cccc2C(=O)Nc2ccc(O[C@H]3CCOC3)nc2)N1 | > 99.5 | > 100 µM |
| O=C1Cc2c(cccc2C(=O)Nc2cccc(-c3cn[nH]c3)c2)N1 | > 99.5 | > 100 µM |
| O=C1Cc2c(cccc2C(=O)Nc2cccc(Cc3nn[nH]n3)c2)N1 | > 99.5 | > 100 µM |
| O=C(Nc1ccc2c(c1)CN[C@H]2C1CC1)c1cc(F)cc2[nH]ncc12 | 13.5 | 15.7 µM and 16.1 µM |
| Cc1c(C(=O)Nc2cc(C3CCOCC3)ccn2)cc(C2CC2)n1C | > 99.5 | > 100 µM |
| N#Cc1cccc(-c2nc3c(C(=O)Nc4ccc(F)cc4)cc(Cl)cc3[nH]2)c1 | > 99.5 | > 100 µM |

| Compound | IC50 (Genome polyprotein [1]) [µM] | IC50 (Genome polyprotein [2]) |
| --- | --- | --- |
| Cc1c(C(=O)Nc2ccc3c(c2)C(=O)NC3)cc(C2CC2)n1C | > 99.5 | > 100 µM |
| O=C(NCC(F)F)[C@H](Nc1ccc2c(c1)CNC2)c1cc(Br)cc2cn[nH]c12 | > 99.5 | > 100 µM |
| COC(=O)[C@H]1NCc2cc(NC(=O)c3cc(F)cc4[nH]ncc34)ccc21 | > 99.5 | > 100 µM |
| N#Cc1cccc(-c2nc3c(C(=O)Nc4ccccn4)cc(Cl)cc3[nH]2)c1 | 28.9 | > 100 µM |
| Nc1ccncc1-c1cc(F)cc(C(=O)Nc2ccc3c(c2)CNC3)c1 | > 99.5 | > 100 µM |
| C[C@H]1C(=O)Nc2ccc(C(=O)Nc3ccc4c(c3)CNC4)cc21 | 34.5 | 25.1 µM and 17.2 µM |
| COCCN(C)C(=O)[C@H](Nc1ccc2c(c1)CNC2)c1cc(Cl)cc(C2CC2)c1 | > 99.5 | > 100 µM |
| O=C1C[C@H](c2cccc(-c3cc(F)cc(C(=O)Nc4ccc5c(c4)CNC5)c3)c2)N1 | > 99.5 | > 100 µM |
| CC(=O)N(c1ccc2c(c1)CNC2)[C@]1(c2cc(Cl)cc(C3CC3)c2)CCCN(C)C1=O | > 99.5 | > 100 µM |
| O=C1Cc2c(cccc2C(=O)Nc2nc([C@H]3CCCOC3)cs2)N1 | > 99.5 | > 100 µM |
| Cc1c(C(=O)Nc2cccc(CN3CCCC3=O)c2)cc(C2CC2)n1C | > 99.5 | > 100 µM |
| CN(C)C(=O)C[C@H]1NCc2cc(NC(=O)c3cc(F)cc4[nH]ncc34)ccc21 | > 99.5 | 54.5 µM and 71.7 µM |
| NCCc1cccc(NC(=O)c2cccc3c2CC(=O)N3)c1 | > 99.5 | > 100 µM |
| C[C@H]1NCc2cc(NC(=O)c3cc(F)cc4[nH]ncc34)ccc21 | 69.8 | 62.2 µM and 68.2 µM |
| O=C(Nc1ccc2c(c1)CNC2)c1cc(Cl)cc2[nH]c(-c3ccccc3)nc12 | 3.31 | 51.8 µM and 21.4 µM |
| O=C1Cc2c(cccc2C(=O)Nc2ccc(N3CCOC3=O)nc2)N1 | > 99.5 | > 100 µM |
| O=C(NCC(F)F)[C@H](Nc1ccc2c(c1)CNC2)c1cc(Br)ccc1Oc1ccc(Cl)c(Cl)c1 | > 99.5 | > 100 µM |
| Cc1cc(NC(=O)c2cc(C3CC3)n(C)c2C)ccc1OC1CCOCC1 | > 99.5 | > 100 µM |
| O=C(Nc1ccc2c(c1)CN[C@H]2C(=O)O)c1cc(F)cc2[nH]ncc12 | 71.1 | 79.4 µM and > 100 µM |
| Cc1c(C(=O)Nc2ccc3c(c2)CN(C)C3=O)cc(C2CC2)n1C | > 99.5 | > 100 µM |
| Cn1nc(CNc2cc([C@H]3CCOC3)ccn2)cc1C1CC1 | > 99.5 | > 100 µM |
| O=C([C@H](Nc1ccc2c(c1)CNC2)c1cc(Cl)cc(C2CC2)c1)N1CCOCC1 | > 99.5 | > 100 µM |
| C[C@H](NC(=O)c1cccc2c1CC(=O)N2)c1nnc2n1CCCC2 | > 99.5 | > 100 µM |
| CC(C)n1nncc1-c1cc(F)cc(C(=O)Nc2ccc3c(c2)CNC3)c1 | 89 | > 100 µM |
